Results from the supplement of paper PMC13207355.
Structures can show the parent of a compound that is named as a salt.

Experiments:
Conditions in all cases: exposure time: 72 h
E34 [1] = patient-derived glioblastoma stem cells of proneural subtype; experiment: phenotypic distance (Euclidean, principal components) from DMSO controls (arbitrary units); higher = stronger morphological change
FT3469 [2] = normal neural stem cell line; experiment: as above
E57 [3] = patient-derived glioblastoma stem cells of mesenchymal subtype; experiment: as above
E31 [4] = patient-derived glioblastoma stem cells of proneural subtype; experiment: as above
E13 [5] = patient-derived glioblastoma stem cells of classical subtype; experiment: as above
E21 [6] = patient-derived glioblastoma stem cells of mesenchymal subtype; experiment: as above
E28 [7] = patient-derived glioblastoma stem cells of classical subtype; experiment: as above
E34 [8] = experiment: surviving fraction (nuclei count normalised to DMSO); higher = more cells surviving (less toxic)
FT3469 [9] = experiment: as above
E57 [10] = experiment: as above
E31 [11] = experiment: as above
E13 [12] = experiment: as above
E21 [13] = experiment: as above
E28 [14] = experiment: as above
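Wherever phenotypic distance (Euclidean, principal components) from DMSO controls is given: cell Painting imaging in 384-well plates, CellProfiler features reduced to at least 20 principal components, Euclidean distance versus same-plate DMSO vehicle wells (0.1% v/v), median over six images per well.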
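Wherever surviving fraction (nuclei count normalised to DMSO) is given: nuclei counted by high-content imaging of Hoechst-stained cells in laminin-coated 384-well plates, relative to 0.1% DMSO vehicle wells, with staurosporine as cell-death control.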

COC(=O)[C@@H]1[C@H]2C[C@H]3c4[nH]c5ccccc5c4CCN3C[C@@H]2CC[C@@H]1O [Yohimbine hydrochloride]
Conditions	phenotypic distance	surviving fraction
E13 [5], 4.11523 nM	0.924	–
E13 [5], 12.34567901 nM	0.56	–
E13 [5], 37.037 nM	0.624	–
E13 [5], 111.1111111 nM	0.517	–
E13 [5], 333.333 nM	0.539	–
E13 [5], 1000 nM	0.622	–
E13 [5], 3000 nM	0.73	–
E13 [12], 4.11523 nM	–	0.88
E13 [12], 12.34567901 nM	–	0.94
E13 [12], 37.037 nM	–	1.03
E13 [12], 111.1111111 nM	–	0.984
E13 [12], 333.333 nM	–	1.01
E13 [12], 1000 nM	–	0.876
E13 [12], 3000 nM	–	0.986
E21 [6], 4.11523 nM	0.527	–
E21 [6], 12.34567901 nM	0.576	–
E21 [6], 37.037 nM	0.624	–
E21 [6], 111.1111111 nM	0.545	–
E21 [6], 333.333 nM	0.676	–
E21 [6], 1000 nM	0.456	–
E21 [6], 3000 nM	0.417	–
E21 [13], 4.11523 nM	–	0.896
E21 [13], 12.34567901 nM	–	1.01
E21 [13], 37.037 nM	–	0.994
E21 [13], 111.1111111 nM	–	1.06
E21 [13], 333.333 nM	–	1.03
E21 [13], 1000 nM	–	1.01
E21 [13], 3000 nM	–	1.02
E28 [7], 4.11523 nM	0.456	–
E28 [7], 12.34567901 nM	0.689	–
E28 [7], 37.037 nM	1.18	–
E28 [7], 111.1111111 nM	0.639	–
E28 [7], 333.333 nM	0.696	–
E28 [7], 1000 nM	0.645	–
E28 [7], 3000 nM	0.333	–
E28 [14], 4.11523 nM	–	1.01
E28 [14], 12.34567901 nM	–	0.965
E28 [14], 37.037 nM	–	1.04
E28 [14], 111.1111111 nM	–	0.945
E28 [14], 333.333 nM	–	1.15
E28 [14], 1000 nM	–	0.948
E28 [14], 3000 nM	–	0.948
E31 [4], 4.11523 nM	0.598	–
E31 [4], 12.34567901 nM	0.58	–
E31 [4], 37.037 nM	0.688	–
E31 [4], 111.1111111 nM	0.658	–
E31 [4], 333.333 nM	0.454	–
E31 [4], 1000 nM	0.521	–
E31 [4], 3000 nM	0.828	–
E31 [11], 4.11523 nM	–	0.959
E31 [11], 12.34567901 nM	–	0.999
E31 [11], 37.037 nM	–	1.18
E31 [11], 111.1111111 nM	–	0.859
E31 [11], 333.333 nM	–	0.951
E31 [11], 1000 nM	–	1.07
E31 [11], 3000 nM	–	0.928
E34 [1], 4.11523 nM	0.815	–
E34 [1], 12.34567901 nM	0.668	–
E34 [1], 37.037 nM	0.596	–
E34 [1], 111.1111111 nM	0.623	–
E34 [1], 333.333 nM	0.866	–
E34 [1], 1000 nM	0.744	–
E34 [1], 3000 nM	0.647	–
E34 [8], 4.11523 nM	–	0.932
E34 [8], 12.34567901 nM	–	0.932
E34 [8], 37.037 nM	–	0.912
E34 [8], 111.1111111 nM	–	1.05
E34 [8], 333.333 nM	–	0.932
E34 [8], 1000 nM	–	0.959
E34 [8], 3000 nM	–	0.892
E57 [3], 4.11523 nM	0.343	–
E57 [3], 12.34567901 nM	0.457	–
E57 [3], 37.037 nM	0.558	–
E57 [3], 111.1111111 nM	0.582	–
E57 [3], 333.333 nM	0.386	–
E57 [3], 1000 nM	0.804	–
E57 [3], 3000 nM	0.576	–
E57 [10], 4.11523 nM	–	1.03
E57 [10], 12.34567901 nM	–	1.07
E57 [10], 37.037 nM	–	0.994
E57 [10], 111.1111111 nM	–	0.981
E57 [10], 333.333 nM	–	0.979
E57 [10], 1000 nM	–	0.979
E57 [10], 3000 nM	–	1.01
FT3469 [2], 4.11523 nM	0.568	–
FT3469 [2], 12.34567901 nM	0.613	–
FT3469 [2], 37.037 nM	0.433	–
FT3469 [2], 111.1111111 nM	1.24	–
FT3469 [2], 333.333 nM	0.516	–
FT3469 [2], 1000 nM	0.514	–
FT3469 [2], 3000 nM	0.55	–
FT3469 [9], 4.11523 nM	–	0.957
FT3469 [9], 12.34567901 nM	–	1.05
FT3469 [9], 37.037 nM	–	0.936
FT3469 [9], 111.1111111 nM	–	0.853
FT3469 [9], 333.333 nM	–	1.04
FT3469 [9], 1000 nM	–	0.975
FT3469 [9], 3000 nM	–	1.01

Nc1ccn([C@H]2CC[C@@H](CO)O2)c(=O)n1 [Zalcitabine]
Conditions	phenotypic distance	surviving fraction
E13 [5], 4.1 nM	0.723	–
E13 [5], 12.3 nM	0.719	–
E13 [5], 37 nM	0.578	–
E13 [5], 111.1 nM	0.722	–
E13 [5], 333.3 nM	0.483	–
E13 [5], 1000 nM	0.498	–
E13 [5], 3000 nM	0.729	–
E13 [12], 4.1 nM	–	0.88
E13 [12], 12.3 nM	–	1.02
E13 [12], 37 nM	–	1.01
E13 [12], 111.1 nM	–	0.953
E13 [12], 333.3 nM	–	0.94
E13 [12], 1000 nM	–	1.01
E13 [12], 3000 nM	–	0.913
E21 [6], 4.1 nM	0.578	–
E21 [6], 12.3 nM	0.976	–
E21 [6], 37 nM	0.36	–
E21 [6], 111.1 nM	0.783	–
E21 [6], 333.3 nM	0.577	–
E21 [6], 1000 nM	0.331	–
E21 [6], 3000 nM	0.684	–
E21 [13], 4.1 nM	–	0.917
E21 [13], 12.3 nM	–	0.894
E21 [13], 37 nM	–	1.08
E21 [13], 111.1 nM	–	0.99
E21 [13], 333.3 nM	–	0.9
E21 [13], 1000 nM	–	0.987
E21 [13], 3000 nM	–	0.979
E28 [7], 4.1 nM	0.369	–
E28 [7], 12.3 nM	0.351	–
E28 [7], 37 nM	0.756	–
E28 [7], 111.1 nM	0.552	–
E28 [7], 333.3 nM	0.598	–
E28 [7], 1000 nM	0.381	–
E28 [7], 3000 nM	0.783	–
E28 [14], 4.1 nM	–	1.04
E28 [14], 12.3 nM	–	1.04
E28 [14], 37 nM	–	0.97
E28 [14], 111.1 nM	–	1.13
E28 [14], 333.3 nM	–	1.01
E28 [14], 1000 nM	–	1.12
E28 [14], 3000 nM	–	0.87
E31 [4], 4.1 nM	0.62	–
E31 [4], 12.3 nM	0.852	–
E31 [4], 37 nM	0.398	–
E31 [4], 111.1 nM	0.47	–
E31 [4], 333.3 nM	0.46	–
E31 [4], 1000 nM	0.667	–
E31 [4], 3000 nM	0.528	–
E31 [11], 4.1 nM	–	0.933
E31 [11], 12.3 nM	–	1.11
E31 [11], 37 nM	–	0.978
E31 [11], 111.1 nM	–	1.13
E31 [11], 333.3 nM	–	0.919
E31 [11], 1000 nM	–	0.885
E31 [11], 3000 nM	–	0.972
E34 [1], 4.1 nM	0.915	–
E34 [1], 12.3 nM	0.593	–
E34 [1], 37 nM	0.379	–
E34 [1], 111.1 nM	0.902	–
E34 [1], 333.3 nM	1.02	–
E34 [1], 1000 nM	0.999	–
E34 [1], 3000 nM	0.863	–
E34 [8], 4.1 nM	–	0.869
E34 [8], 12.3 nM	–	0.954
E34 [8], 37 nM	–	1.05
E34 [8], 111.1 nM	–	0.887
E34 [8], 333.3 nM	–	0.896
E34 [8], 1000 nM	–	0.977
E34 [8], 3000 nM	–	0.802
E57 [3], 4.1 nM	1.83	–
E57 [3], 12.3 nM	0.448	–
E57 [3], 37 nM	0.547	–
E57 [3], 111.1 nM	0.703	–
E57 [3], 333.3 nM	0.624	–
E57 [3], 1000 nM	0.55	–
E57 [3], 3000 nM	0.703	–
E57 [10], 4.1 nM	–	1.06
E57 [10], 12.3 nM	–	0.945
E57 [10], 37 nM	–	0.991
E57 [10], 111.1 nM	–	1.09
E57 [10], 333.3 nM	–	0.982
E57 [10], 1000 nM	–	1.02
E57 [10], 3000 nM	–	1.05
FT3469 [2], 4.1 nM	3.61	–
FT3469 [2], 12.3 nM	0.392	–
FT3469 [2], 37 nM	0.547	–
FT3469 [2], 111.1 nM	0.849	–
FT3469 [2], 333.3 nM	0.603	–
FT3469 [2], 1000 nM	0.632	–
FT3469 [2], 3000 nM	0.569	–
FT3469 [9], 4.1 nM	–	1.11
FT3469 [9], 12.3 nM	–	1.03
FT3469 [9], 37 nM	–	0.953
FT3469 [9], 111.1 nM	–	1.1
FT3469 [9], 333.3 nM	–	1.02
FT3469 [9], 1000 nM	–	1.11
FT3469 [9], 3000 nM	–	0.989
